The source of these data is PMC5442763, “Selective Inhibition of ADAM17 Efficiently Mediates Glycoprotein Ibα Retention During Ex Vivo Generation of Human Induced Pluripotent Stem Cell‐Derived Platelets” (Stem Cells Translational Medicine, 2016).

Peptide text beside a SMILES is read from it. * marks the point of attachment. Cbz = O=C(OCc1ccccc1)*; CH2F = FC*

Experiment [1] relates to human iPSC-derived MKs and platelets. Description: Generation of MKs and platelets from human iPSC-derived HPCs at 37°C, flow cytometry. The format is cell-based. Particulars: for GPIbα retention by iPSC-derived platelets, inhibitor only during platelet production phase: days 21–23 or 24, KP-457 15, BIRB796 10, U0126 10, BMS345541 10, Z-VAD 10, Ro31-8220 3 μmol/l; for number of CD41a+ total iPSC platelets / retention of GPIbα expression on CD41a+ iPSC-derived platelets / number of CD41a+ iPSC-derived MKs: KP-457 15 μmol/l, GM-6001 50 μmol/l, p38 MAP kinase inhibitor 10 μmol/l; for number of CD41a+ iPSC-derived MKs: MK differentiation and platelet production phases. As for the experimental part:
Directed differentiation to MKs and platelets from iPSCs and ESCs was performed as described previously. Briefly, 3 × 10^4 HPCs derived from iPS‐sacs on C3H10T1/2 feeder cells in the presence of 20 ng/ml vascular endothelial growth factor were transferred on day 14 of culture onto C3H10T1/2 feeder cells in differentiation medium supplemented with 50 ng/ml stem cell factor, 100 ng/ml thrombopoietin, 25 U/ml heparin sodium, and test compounds at 24°C or 37°C. The medium was refreshed every 3 days, and nonadherent cells were collected and analyzed on days 22–24.
(§1) Flow cytometric analysis was performed as previously described. Briefly, iPSC‐ and ESC‐derived MKs on days 22–24 and platelets in their supernatants were stained with combinations of antibodies for 30 minutes on ice (for MKs) or at room temperature (for platelets). Samples of MKs/platelets were then washed, diluted with staining medium (phosphate‐buffered saline containing 3% fetal bovine serum), and analyzed using flow cytometry (FACSAria; BD). Trucount tubes (BD) were used to quantify the MKs and platelets.

The subject of another experiment is human washed platelets. The experiment is described as follows: CCCP-induced GPIbα shedding from washed platelets. The format is cell-based. Particulars: relative to maximum inhibition elicited by KP-457 or GM-6001. The method, then:
as §1
Washed platelets were prepared as described elsewhere.

The subject of the next experiment is platelet aggregation. The experiment is described as follows: Platelet aggregation induced by thrombin or collagen. The format is cell-based.
In another experiment the test system is mouse platelets. On the set-up: method as in PMID 23801636. The conditions noted are these: cited from earlier work.
Experiment [2] addresses T1, Human ADAM17 (Homo sapiens, UniProt P78536).
T1 construct: purchased R&D Systems
The experiment is described as follows: MMP and ADAM activity assay (fluorescence-based, cell-free): ADAM17. The conditions noted are these: cell-free fluorescence assay, TNF-α cleavage site substrate. The experiment is classed as biochemical. The text has this:
(§2) Human ADAM17, ADAM10, and MMP17 were from R&D Systems (Minneapolis, MN, http://www.rndsystems.com), and human MMP1, MMP2, MMP3, MMP8, MMP9, MMP13, and MMP14 were from EMD Millipore. MMP1, MMP2, MMP8, MMP9, MMP13, and MMP17 were activated using p‐aminophenylmercuric acetate (Sigma‐Aldrich) before testing. Fluorogenic substrates for measuring activity of ADAM10 and ADAM17 [Nma‐[…](Dnp)r‐NH2, based on the cleavage site of TNF‐α]; MMP1, MMP9, MMP13, and MMP14 [Dnp‐P‐Cha‐GC(Me)HAK(N‐Me‐Abz)‐NH2]; MMP3 [MOCAc‐RPKPVE‐Nva‐WRK(Dnp)‐NH2]; and MMP2, MMP8, and MMP17 [MOCAc‐PLGL‐A2pr(Dnp)‐AR‐NH2] were all provided by Peptide Institute (Osaka, Japan, https://www.peptide.co.jp/en) and used as substrates. In addition, inhibitory activities were measured using LC/MS/MS with a GPIbα‐based substrate peptide ([…]), a C terminal‐based standard peptide ([…]), and an internal standard peptide ([…]). These peptides were synthetized by Scrum (Tokyo, Japan, http://www.scrum‐net.co.jp/english/top_en.htm).

Another experiment concerns the target T2, human ADAM10 (Homo sapiens, UniProt O14672).
T2 construct: purchased R&D Systems
The experiment is described as follows: MMP and ADAM activity assay (fluorescence-based): ADAM10. The experiment is classed as biochemical. The conditions noted are these: cell-free fluorescence assay. As for the experimental part: as §2, with “KP‐457 and GM‐6001 were tested for their ability to inhibit MMP‐ and ADAM‐catalyzed cleavage of substrates in a fluorescence‐based assay. Human” for “Human”

Another experiment concerns the target T3, human MMP3 (Homo sapiens, UniProt P08254).
T3 construct: purchased EMD Millipore
The experiment is described as follows: MMP and ADAM activity assay (fluorescence-based): MMP3. The experiment is classed as biochemical. The conditions noted are these: cell-free fluorescence assay. The method, then:
as §2, with “KP‐457 and GM‐6001 were tested for their ability to inhibit MMP‐ and ADAM‐catalyzed cleavage of substrates in a fluorescence‐based assay. Human” for “Human”

In the next experiment the target is T4, human MMP13 (Homo sapiens, UniProt P45452).
T4 construct: purchased EMD Millipore
The experiment is described as follows: MMP and ADAM activity assay (fluorescence-based): MMP13. The conditions noted are these: cell-free fluorescence assay. The format is biochemical.
Description: as §2

For a further experiment, the target named is T5, human MMP14 (Homo sapiens, UniProt P50281).
T5 construct: purchased EMD Millipore
Description: MMP and ADAM activity assay (fluorescence-based): MMP14. The conditions noted are these: cell-free fluorescence assay. The experiment is classed as biochemical. The method, then: as §2, with “KP‐457 and GM‐6001 were tested for their ability to inhibit MMP‐ and ADAM‐catalyzed cleavage of substrates in a fluorescence‐based assay. Human” for “Human”

The next experiment deals with T6, human MMP17 (Homo sapiens, UniProt Q9ULZ9).
T6 construct: purchased R&D Systems
The experiment is described as follows: MMP and ADAM activity assay (fluorescence-based): MMP17. The experiment is classed as biochemical. The conditions noted are these: cell-free fluorescence assay. The method, then:
as §2, with “KP‐457 and GM‐6001 were tested for their ability to inhibit MMP‐ and ADAM‐catalyzed cleavage of substrates in a fluorescence‐based assay. Human” for “Human”

The target of experiment [3] is T1, Human ADAM17. The experiment is described as follows: Cleavage of GPIbα-based substrate peptide by ADAM17 (LC/MS/MS). The conditions noted are these: read-out: IC50, inhibition of C-terminal cleavage of the GPIbα sequence by ADAM17. The experiment is classed as biochemical.
Description: as §2
(1 picture or pasted object on this page, not shown here)

Experiment [4] deals with mouse ESC-derived platelets. On the set-up: method as in PMID 18663123. Particulars: 100 µmol/l; cited from earlier work.
Another experiment has as its system ADAM17. On the set-up: method as in PMID 25049354. Particulars: cited from earlier work.

T1 sequence (P78536 215-824): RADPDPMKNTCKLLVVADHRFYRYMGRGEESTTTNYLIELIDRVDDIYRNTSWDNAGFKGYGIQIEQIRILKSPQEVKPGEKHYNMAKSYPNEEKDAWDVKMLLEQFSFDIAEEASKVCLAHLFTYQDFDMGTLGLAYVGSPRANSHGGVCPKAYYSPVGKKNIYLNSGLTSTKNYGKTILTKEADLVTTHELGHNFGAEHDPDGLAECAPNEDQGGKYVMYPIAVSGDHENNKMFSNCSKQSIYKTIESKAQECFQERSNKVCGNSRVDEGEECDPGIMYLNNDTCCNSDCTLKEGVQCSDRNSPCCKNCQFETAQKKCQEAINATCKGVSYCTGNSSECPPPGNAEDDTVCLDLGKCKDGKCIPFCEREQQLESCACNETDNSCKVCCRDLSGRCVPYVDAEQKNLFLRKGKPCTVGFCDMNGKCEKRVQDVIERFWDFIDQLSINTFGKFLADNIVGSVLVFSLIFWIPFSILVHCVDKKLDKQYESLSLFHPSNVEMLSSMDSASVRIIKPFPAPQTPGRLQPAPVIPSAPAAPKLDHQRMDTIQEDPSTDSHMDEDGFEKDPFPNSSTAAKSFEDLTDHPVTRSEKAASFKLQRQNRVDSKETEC
T3 sequence (P08254 100-477): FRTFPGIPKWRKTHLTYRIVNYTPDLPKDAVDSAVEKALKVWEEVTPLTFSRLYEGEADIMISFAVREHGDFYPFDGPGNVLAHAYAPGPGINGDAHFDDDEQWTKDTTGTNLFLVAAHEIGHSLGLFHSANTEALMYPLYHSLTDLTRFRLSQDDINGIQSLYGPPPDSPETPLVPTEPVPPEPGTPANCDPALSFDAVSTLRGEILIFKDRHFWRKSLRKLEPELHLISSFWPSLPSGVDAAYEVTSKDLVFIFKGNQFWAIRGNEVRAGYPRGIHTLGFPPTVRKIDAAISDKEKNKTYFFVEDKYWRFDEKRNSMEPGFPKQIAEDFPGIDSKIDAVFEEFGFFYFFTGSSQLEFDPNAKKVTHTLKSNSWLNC
T6 sequence (Q9ULZ9 126-565 limits assumed): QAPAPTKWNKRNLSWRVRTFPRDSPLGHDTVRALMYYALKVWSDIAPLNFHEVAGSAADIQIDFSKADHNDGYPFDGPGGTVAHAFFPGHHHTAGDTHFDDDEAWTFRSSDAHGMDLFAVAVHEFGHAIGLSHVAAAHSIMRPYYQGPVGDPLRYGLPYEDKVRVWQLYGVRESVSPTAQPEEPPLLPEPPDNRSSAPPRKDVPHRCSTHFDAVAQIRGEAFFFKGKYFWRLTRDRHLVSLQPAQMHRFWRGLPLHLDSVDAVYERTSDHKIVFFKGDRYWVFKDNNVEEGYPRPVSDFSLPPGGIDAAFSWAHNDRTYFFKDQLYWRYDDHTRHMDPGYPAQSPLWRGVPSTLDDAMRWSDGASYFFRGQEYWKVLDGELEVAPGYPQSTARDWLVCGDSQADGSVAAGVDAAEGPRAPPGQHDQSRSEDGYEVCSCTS
T2 sequence (O14672 214-748): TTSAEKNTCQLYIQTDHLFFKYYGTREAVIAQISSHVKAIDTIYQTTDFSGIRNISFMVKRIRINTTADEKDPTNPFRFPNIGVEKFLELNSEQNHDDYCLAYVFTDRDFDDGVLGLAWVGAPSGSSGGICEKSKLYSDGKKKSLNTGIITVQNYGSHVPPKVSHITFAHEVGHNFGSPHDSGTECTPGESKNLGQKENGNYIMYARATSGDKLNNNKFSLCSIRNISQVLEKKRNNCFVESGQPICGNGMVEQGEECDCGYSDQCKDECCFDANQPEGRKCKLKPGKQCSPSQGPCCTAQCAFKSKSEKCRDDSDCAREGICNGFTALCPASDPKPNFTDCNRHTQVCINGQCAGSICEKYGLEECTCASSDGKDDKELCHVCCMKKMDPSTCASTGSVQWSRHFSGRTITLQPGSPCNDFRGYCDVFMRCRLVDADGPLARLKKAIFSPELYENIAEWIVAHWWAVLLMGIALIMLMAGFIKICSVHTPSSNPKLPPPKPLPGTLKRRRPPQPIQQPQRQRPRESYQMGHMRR

With `CC(NC(=O)C(NC(=O)OCc1ccccc1)C(C)C)C(=O)NC(CC(=O)O)C(=O)CF` (stereo not drawn) [Z‐VAD] (Cbz-Val-Ala-Asp-CH2F; configuration not given here), the “GPIbα retention by iPSC-derived platelets, inhibitor only during platelet production phase” value in experiment [1] was “failed to prevent”.

Consider `C[S+]([O-])c1ccc(-c2nc(-c3ccncc3)c(-c3ccc(F)cc3)[nH]2)cc1` (centres unmarked) [SB203580], for which, in the experiment on human washed platelets, the “plateau of the inhibitory effect on CCCP-induced GPIbα shedding” value was “around half the maximum inhibition”. In addition, in the experiment with platelet aggregation, the “effect on collagen-induced platelet aggregation” value is “diminished”. Besides, in [1], the “number of CD41a+ total iPSC platelets” value is reported as “increased”, the “retention of GPIbα expression on CD41a+ iPSC-derived platelets” value (shortened to “retention of GPIbα expression”) is “failed to preserve” and the “number of CD41a+ iPSC-derived MKs” value was “increased”. For the same compound, the “suppression of thrombin-induced GPIbα shedding from mouse platelets compared with GM-6001” value in the experiment with mouse platelets was “less effectively”.

Usually IC50 stands for the concentration that inhibits the measured activity by half. With `CNC(=O)[C@H](Cc1c[nH]c2ccccc12)NC(=O)[C@@H](CC(=O)NO)CC(C)C` [GM-6001], the IC50 on Human ADAM17 [2] came out at 163 nM; against human ADAM10, 642 nM; on human MMP3, 79.8 nM; at human MMP13, 0.435 nM; on human MMP14 it was 2.96 nM; against human MMP17, 5.16 nM. Further, at Human ADAM17 [3], the half-inhibitory concentration (IC50) amounted to 53.8 nM. Also, the “number of CD41a+ total iPSC platelets” value in experiment [1] was “no significant effect”. The “retention of GPIbα expression” value in experiment [1] is “able to retain”. The “number of CD41a+ iPSC-derived MKs” value in experiment [1] is recorded as “no significant effect”. For the same compound, the “GPVI shedding during platelet generation from mouse ESCs” value in experiment [4] was “partially inhibited”.

With `Cc1ccc2nc(NCCN)c3ncc(C)n3c2c1` [BMS345541], in experiment [1], the “GPIbα retention by iPSC-derived platelets, inhibitor only during platelet production phase” value is “failed to prevent”.

With `Cn1cc(C2=C(c3cn(CCCSC(=N)N)c4ccccc34)C(=O)NC2=O)c2ccccc21` [Ro31‐8220], in experiment [1], the “GPIbα retention by iPSC-derived platelets, inhibitor only during platelet production phase” value was “failed to prevent”.

Turning to `N#CC(=C(/N)Sc1ccccc1N)/C(C#N)=C(/N)Sc1ccccc1N` [U0126], in experiment [1], the “GPIbα retention by iPSC-derived platelets, inhibitor only during platelet production phase” value is listed as “failed to prevent”.

Consider `COc1ccc(S(=O)(=O)N2Cc3ccccc3C[C@@H]2C(=O)NO)cc1` [M8I], for which the ADAM17 inhibition entry in the experiment with ADAM17 is given as “potently inhibits ADAM17”.

In the case of `Cc1ccc(-n2nc(C(C)(C)C)cc2NC(=O)Nc2ccc(OCCN3CCOCC3)c3ccccc23)cc1` [BIRB796], the “plateau of the inhibitory effect on CCCP-induced GPIbα shedding” value in the experiment with human washed platelets is recorded as “around half the maximum inhibition”. Also, the “effect on collagen-induced platelet aggregation” value in the experiment on platelet aggregation is reported as “diminished”. Further, in experiment [1] (BIRB796 10 μmol/l, representative FACS plot, vehicle 48.3%), the “GPIbα+ population in human iPSC-derived CD41a+ platelets” value stood at 48.0%. In experiment [1], the “number of CD41a+ total iPSC platelets” value is given as “increased”; the “retention of GPIbα expression” value is on record as “failed to preserve”; the “number of CD41a+ iPSC-derived MKs” value is recorded as “increased”; the “GPIbα retention by iPSC-derived platelets, inhibitor only during platelet production phase” value is recorded as “failed to prevent”.
